Results taken from US20070161513A1, “3-[1-halo-1-arylmethanesulfonyl]- and 3-[1-halo-1-heteroarylmethanesulfonyl]- isoxazoline derivatives, processes for preparing them, and use as herbicides and plant growth regulators” (Bayer CropScience GmbH, priority 2005, published 2007).

Key:
[1] = test system: weed plants such as Avena spp., Lolium multiflorum, Stellaria media, Setaria spp., Sinapis alba and Amaranthus retroflexus; test: Pre-emergence herbicidal activity (pot test under glass); format: in vivo; conditions: applied pre-emergence at a rate of 2 kg or less of active substance per hectare; WP formulation; visual scoring after 3 weeks vs untreated controls
Description: 1. Pre-Emergence Herbicidal Activity Seeds of monocot and dicot weed and crop plants are planted out in sandy loam soil in wood fiber pots and covered with soil. The test compounds, formulated as wettable powders (WP), are then applied to the surface of the soil cover, in the form of an aqueous suspension, at a water application rate of 600 I/ha (converted), in various dosages, with the addition of 0.2% of wetting agent. After the treatment, the pots are set up under glass and held under good growth conditions for the test plants. Visual scoring of the emergence damage to the trial plants is made after a trial period of 3 weeks in comparison with untreated controls (herbicidal activity in percent (%): 100% activity=plants have died, 0% activity=like control plants).

[2] = test system: weed plants such as Sinapis alba, Echinochloa crus-galli, Cyperus iria, Avena spp., Stellaria media, Setaria spp., and Amaranthus retroflexus; test: Post-emergence herbicidal activity (pot test under glass); format: in vivo; conditions: applied post-emergence (one-leaf stage) at a rate of 2 kg or less of active substance per hectare; WP formulation; visual scoring after about 3 weeks vs untreated controls
Experimental: 2. Post-Emergence Herbicidal Activity Seeds of monocot and dicot weed and crop plants are planted out in sandy loam soil in wood fiber pots, covered with soil, and cultivated under glass under good growth conditions. Two-three weeks after sowing, the trial plants are treated at the one-leaf stage. The test compounds, formulated as wettable powders (WP), are then sprayed onto the green parts of the plants, at a water application rate of 600 I/ha (converted), in various dosages, with the addition of 0.2% of wetting agent. After the trial plants have stood for about 3 weeks under glass under optimum growth conditions, the effect of the products is scored visually in comparison with untreated controls. (herbicidal activity in percent (%): 100% activity=plants have died, 0% activity=like control plants).

Compound | herbicidal activity against weed plants, pre-emergence [1] | herbicidal activity against weed plants, post-emergence [2]
CC1(C)CC(S(=O)(=O)C(Cl)c2ccccc2)=NO1 (stereo not drawn) [Compound I-1.1, 3-{[Chloro(phenyl)methyl]sulfonyl}-5,5-dimethyl-4,5-dihydroisoxazole] | very good herbicidal activity | very good herbicidal activity
CC1(C)CC([S+]([O-])C(Cl)c2ccccc2)=NO1 (stereo not drawn) [III-1.1] | very good herbicidal activity | very good herbicidal activity
CC1(C)CC([S+]([O-])C(Cl)c2c(F)cccc2Cl)=NO1 (stereo not drawn) [III-5.1, 3-{[Chloro(2-chloro-6-fluorophenyl)methyl]sulfinyl}-5,5-dimethyl-4,5-dihydroisoxazole] | very good herbicidal activity | very good herbicidal activity
